Common to all, as to assay type: biochemical, M. tuberculosis
The target in experiment [1] is T1, MshC (Mycobacterium tuberculosis, UniProt P9WJM9).
T1 sequence (P9WJM9 1-414): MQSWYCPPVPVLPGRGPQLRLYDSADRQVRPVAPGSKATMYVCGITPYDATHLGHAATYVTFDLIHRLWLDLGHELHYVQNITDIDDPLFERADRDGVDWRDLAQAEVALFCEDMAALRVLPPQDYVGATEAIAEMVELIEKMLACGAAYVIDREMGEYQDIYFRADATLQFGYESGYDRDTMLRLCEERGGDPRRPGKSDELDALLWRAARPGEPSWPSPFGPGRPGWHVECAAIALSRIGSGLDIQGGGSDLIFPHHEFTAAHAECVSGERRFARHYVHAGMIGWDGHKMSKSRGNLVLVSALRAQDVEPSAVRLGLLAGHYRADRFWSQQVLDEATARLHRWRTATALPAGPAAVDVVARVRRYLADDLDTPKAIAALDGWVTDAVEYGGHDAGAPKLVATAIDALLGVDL
The note with it: for activity as alternative substrate to Cys, in words: 80 μM to 1.6 mM.

Experiment [2] addresses T1, MshC. Description: Inhibition studies of MshC ligase activity (HEPES pH 7.5, HPLC). The following applies: for % inhibition: 50 μM GlcN-Ins and 70 μM Cys.
Experiment [3] has as its target T1, MshC. Description: Zn supplementation. The note with it: 2, 10, 50 or 100 μM zinc chloride.
Experiment [4] concerns the target T1, MshC. Description: Metal chelation by phenanthrolines. The note with it: 0.1-5 mM phenanthroline.
The target in experiment [5] is T1, MshC. Description: biochemical. The following applies: using the HPLC assay.
The target in experiment [6] is T1, MshC. As to the kind of experiment: Coupled enzyme spectrophotometric screening assay (MshC plus pyrophosphatase, malachite green). The following applies: 1.6 mM cysteamine, 1 μg MshC.
[7] abbreviates: 80-1600 μM, 70 μM L-Cys and 50 μM GlcN-Ins.

Like-named read-outs stand apart in the source and are kept apart here. Marks after values point to notes of the source that are not given here. Where only a bound is given, the exact number is not on record here.

Turning to `N[C@H]1[C@@H](O[C@@H]2[C@H](O)[C@H](O)[C@@H](O)[C@H](O)[C@H]2O)O[C@H](CO)[C@@H](O)[C@@H]1O` [GlcN-Ins, 1-O-(2-amino-2-deoxy-α-D-glucopyranosyl)-D-myo-inositol], the “apparent Vmax” value in experiment [1] (GlcN-Ins varied, 1 mM ATP and 0.5 mM Cys) worked out at 1160 ± 120 nmol/min/mg. For the same compound, the Michaelis constant (Km) in experiment [1] (pH 7.5, read-out: apparent Km for GlcN-Ins) was determined as 280 ± 43 µM.
As to `N[C@H](CS)C(=O)O` [D-Cys], the “inhibition of the ligase activity, in words” value in experiment [2] (setting [7]) is given as “very minor inhibition”. Besides, in experiment [2] ([inhibitor] 1600 μM), the “% inhibition” value was found to be 15 ± 8%. In experiment [1], the relative spec. act. result was “≦0.7” and the “activity as alternative substrate to Cys, in words” value (“activity as alternative substrate” below) is “poor substrate”.
On to `N[C@H]1C(O)O[C@H](CO)[C@@H](O)[C@@H]1O` (stereo partly drawn) [D-GlcN], for which, in experiment [1], the “activity relative to GlcN-Ins” value was ~1% and the relative spec. act. worked out at 1.2.
Regarding `CC[C@H](N)C(=O)O` [L-α-aminobutyric acid], the “inhibition of the ligase activity, in words” value in experiment [2] (setting [7]) is “very minor inhibition”.
On to `O=C(O)CCS` [β-mercaptopropionate, β-mercaptopropionic acid], for which the “inhibition of the ligase activity, in words” value in experiment [2] (setting [7]) is on record as “minor inhibition”. In addition, the “% inhibition” value in experiment [2] ([inhibitor] 1600 μM) was −20 ± 20%. Further, the relative spec. act. entry in experiment [1] was “≦0.004”.
As for `CC(=O)N[C@@H](CS)C(=O)O` [AcCys, N-acetylcysteine], the “inhibition of the ligase activity, in words” value in experiment [2] (setting [7]) is listed as “minor inhibition”. For the same compound, the “% inhibition” value in experiment [2] ([inhibitor] 1600 μM) came to 20 ± 6%. In experiment [1], the relative spec. act. result is “≦0.24” and the “activity as alternative substrate” value is “Nor was significant activity detected”.
Take `[Cl-].[Cl-].[Zn+2]` [Zn^2+, zinc chloride]: the “effect on enzyme activity, in words” value in experiment [3] is given as “loss in activity”.
Turning to `N[C@@H](CCS)C(=O)O` [L-homocysteine], the “inhibition of the ligase activity, in words” value in experiment [2] (setting [7]) was “very minor inhibition”. The “% inhibition” value in experiment [2] ([inhibitor] 1600 μM) is listed as 0 ± 5%. Moreover, in experiment [1], the relative spec. act. result is given as “≦0.2” and the “activity as alternative substrate” value is listed as “Nor was significant activity detected”.
`C[C@H](N)C(=O)O` [L-alanine]: in experiment [2] (setting [7]), the “inhibition of the ligase activity, in words” value is listed as “very minor inhibition”. For the same compound, the “% inhibition” value in experiment [2] ([inhibitor] 5000 μM) turned out to be 4 ± 8%. For the same compound, in experiment [1], the relative spec. act. entry is on record as “≦0.016” and the “activity as alternative substrate” value was “Nor was significant activity detected”.
In the case of `CC(=O)N[C@@H](CS)C(=O)N[C@H]1[C@@H](OC2[C@H](O)[C@H](O)C(O)[C@H](O)[C@H]2O)O[C@H](CO)[C@@H](O)[C@@H]1O` (stereo partly drawn) [MSH, 1-D-myo-inosityl 2-(N-acetyl-L-cysteinyl)amido-2-deoxy-α-D-glucopyranoside], the “inhibition of the ligase activity, in words” value in experiment [2] (1 and 5 mM, physiologic levels) is “minimal inhibition”. Besides, the “% inhibition” value in experiment [2] ([inhibitor] 1000 μM) came out at 4 ± 3%; in experiment [2] ([inhibitor] 5000 μM), 7 ± 5%.
For the compound `N[C@@H](CO)C(=O)O` [L-serine], in experiment [2] (setting [7]), the “inhibition of the ligase activity, in words” value is “very minor inhibition”. Further, the “% inhibition” value in experiment [2] ([inhibitor] 5000 μM) worked out at 15 ± 8%. Further, in experiment [1], the relative spec. act. result was “≦0.008” and the “activity as alternative substrate” value is recorded as “Nor was significant activity detected”.
With `N[C@@H](CS)C(=O)O` [Cys, L-cysteine], the “apparent Vmax” value in experiment [1] was found to be 1450 ± 200 nmol/min/mg. In addition, in experiment [1] (Cys 70 μM, 50 μM GlcN-Ins, 37° C.), the Specific activity result was “^cSpecific activity 108 nmol min^−1 mg^−1”. Besides, in experiment [1] (Cys 70 μM, reference), the relative spec. act. entry is given as “(100)^c”. Besides, the Michaelis-Menten constant (Km) in experiment [1] (as stated in the feedback inhibition paragraph, read-out: apparent Km value for Cys) is 70 ± 15 µM; in experiment [1] (pH 7.5, read-out: apparent Km for L-Cys) it was 85 ± 20 µM.
`c1cnc2c(c1)ccc1cccnc12` [1,10-phenanthroline]: the “effect on enzyme activity, in words” value in experiment [4] is recorded as “no significant loss of activity”.
Regarding `NCCS` [cysteamine], in experiment [5], the “inhibition of the reaction catalyzed by MshC, in words” value is reported as “weak inhibitor”. Besides, the “rate of phosphate production in the coupled enzyme assay” value in experiment [6] is given as “markedly depressed”. In experiment [2] (1.6 mM), this compound displayed a reduction in rate of 3 fold. The “% inhibition” value in experiment [2] ([inhibitor] 1600 μM) turned out to be 65 ± 10%. In addition, in experiment [1], the relative spec. act. result is given as “≦0.16”.
As for `N[C@@H](CS)C(=O)N[C@H]1[C@@H](OC2[C@H](O)[C@H](O)C(O)[C@H](O)[C@H]2O)O[C@H](CO)[C@@H](O)[C@@H]1O` (some centres unmarked) [Cys-GlcN-Ins, cysteinyl glucosaminyl inositol], the “inhibition (feedback)” value in experiment [2] was < 1.0%.

Broadly, the Km is the substrate concentration at which the rate is half of its maximum. A word on the % inhibition: it is the drop in the measured response relative to a control, in per cent.

(Values after patent US20100022509A1, “Inhibitors of MshC and Homologs Thereof, and Methods of Identifying Same” (priority 2006, published 2010).)
